Patent US20250302788A1, “COMPOSITION COMPRISING CREATINE FOR USE IN THE TREATMENT OF POST VIRAL FATIGUE SYNDROME” (Alzchem Trostberg GmbH, priority 2022, published 2025)
Read-outs that look alike come from different tables or passages of the source.

What was measured:
[1] = both, human, in vivo, 3 months
[2] = test system: Post-COVID patients; experiment: MFI-20 fatigue test, Example 2; format: in vivo, human; details: plus breathing exercise
Method: (§1) The patient-reported outcomes for COVID-19-related signs and symptoms (e.g. headache, concentrating difficulties, anosmia, ageusia) were evaluated with VAS scale. Fatigue, comprising the conditions of the group general fatigue, physical fatigue, metal fatigue, reduced activity, and reduced motivation, was evaluated with a multidimensional fatigue inventory test (MFI-20 test, Smets E. M. et al., J. Psychosom. Res. 1995, 39 (3), 315).

[3] = test system: patients suffering under Post-COVID; experiment: MFI-20 multidimensional fatigue inventory test, Example 1; format: in vivo, human; details: 4 g/day
Method: as §1

[4] = test system: patients suffering under Post-COVID; experiment: VAS scale of COVID-19-related signs and symptoms, Example 1; format: in vivo, human; details: 4 g/day
Method: as §1

[5] = test system: patients suffering under Post-COVID; experiment: Reported side effects, Example 1; format: in vivo, human; details: 4 g creatine monohydrate/day, up to 6 months
Method: The number of participants who were randomly assigned, received intended treatment, and were analyzed for the primary outcome at this time was twelve in total, six in experimental group and six in control group.

[6] = test system: PCFS patients; format: in vivo, human
[7] = test system: patients suffering under Post-COVID; experiment: Incremental treadmill test until exhaustion, Example 1; format: in vivo, human; details: for Time to exhaustion: 4 g/day
Method: In addition the time to exhaustion of the patients was evaluated by an incremental test until exhaustion on a motorized treadmill. Speed and gradient of the treadmill are increased every third minute, starting at 2.7 km/h (1.7 miles per hour) at a 10% gradient and rising at stage 7 to 9.7 km/h (6 miles per hour) at 22% gradient (Will P. M. and Walter J. D., Am Heart. J., 1999 December, 138, 1033).

[8] = human, in vivo
[9] = both, human, in vivo
[10] = test system: PCFS patients; experiment: MFI-20 fatigue test, Example 3; format: in vivo, human
[11] = normal healthy population; cited from earlier work
[12] = test system: PCFS patients; experiment: Incremental treadmill test until exhaustion, Example 3; format: in vivo, human; details: for Change of time to exhaustion: post-administration (8 weeks) vs baseline
Method: In addition the time to exhaustion of the patients was evaluated by an incremental test until exhaustion on a motorized treadmill.

[13] = test system: PCFS patients; details: in vivo
[14] = 8 weeks vs baseline, listed as EXP 2, monohydrate
[15] = 8 weeks vs baseline, monohydrate

## CN(CC(=O)O)C(=N)N.O [Creatine + Breathing Exercise, creatine monohydrate]
[1]
  Cohen's effect size (d) for creatine increment, right frontal grey matter: 1.76
  Cohen's effect size (d) for creatine increment, vastus medialis muscle: 0.77
[2]; 3 months
  General fatigue (MFI-20 score): 12.3
  Mental fatigue (MFI-20 score): 11.5
  Physical fatigue (MFI-20 score): 12.2
  Reduced activity (MFI-20 score): 12.8
  Reduced motivation (MFI-20 score): 12.8
[2]; Baseline
  General fatigue (MFI-20 score): 11.5
  Mental fatigue (MFI-20 score): 11.8
  Physical fatigue (MFI-20 score): 12.3
  Reduced activity (MFI-20 score): 12.5
  Reduced motivation (MFI-20 score): 13.5

## CN(CC(=O)O)C(=N)N.O [Creatine, creatine monohydrate]
[3]; 3 months
  General fatigue (MFI-20 score): 11.3
  Mental fatigue (MFI-20 score): 11.2
  Physical fatigue (MFI-20 score): 12.7
  Reduced activity (MFI-20 score): 12.0
  Reduced motivation (MFI-20 score): 13.0
[3]; 6 months
  General fatigue (MFI-20 score): 12.7
  Mental fatigue (MFI-20 score): 10.5
  Physical fatigue (MFI-20 score): 13.2
  Reduced activity (MFI-20 score): 12.5
  Reduced motivation (MFI-20 score): 12.5
[3]; Baseline
  General fatigue (MFI-20 score): 12.0
  Mental fatigue (MFI-20 score): 12.3
  Physical fatigue (MFI-20 score): 13.5
  Reduced activity (MFI-20 score): 11.5
  Reduced motivation (MFI-20 score): 13.0
[4]; 3 months
  Ageusia (VAS scale): 0.2
  Anosmia (VAS scale): 1.0
  Concentrating difficulties (VAS scale): 1.5
  Headache (VAS scale): 0.8
[4]; 6 months
  Ageusia (VAS scale): 0.0
  Anosmia (VAS scale): 0.8
  Concentrating difficulties (VAS scale): 0.0
  Headache (VAS scale): 0.5
[4]; Baseline
  Ageusia (VAS scale): 5.0
  Anosmia (VAS scale): 5.0
  Concentrating difficulties (VAS scale): 4.0
  Headache (VAS scale): 3.8
[5]
  Side effects: no major side effects
[6]; 8 weeks
  Ageusia (VAS scale): 0.2
  Anosmia (VAS scale): 0.0
  Concentrating difficulties (VAS scale): 2.2
  Headache (VAS scale): 0.8
  Malaise (VAS scale): 1.0
[6]; 8 weeks vs baseline
  Cohen's effect (d), Ageusia (AGE): 0.34
  Cohen's effect (d), Breathing Difficulties (BRD): 0.96
  Cohen's effect (d), Headache (HAD): 0.93
[6]; [14]
  Cohen's effect (d), Difficulties concentrating (DCN): 1.37
  Cohen's effect (d), Malaise (MAL): 1.81
[6]; [15]
  Cohen's effect (d), Difficulties concentrating (DCN): > 0.80
  Cohen's effect (d), Malaise (MAL): > 0.80
[6]; Baseline
  Ageusia (VAS scale): 0.0
  Anosmia (VAS scale): 0.0
  Concentrating difficulties (VAS scale): 4.2
  Headache (VAS scale): 3.2
  Malaise (VAS scale): 4.2
[7]; 3-months
  Time to exhaustion: 922 s
[7]; 6-months
  Time to exhaustion: 959 s
[7]; Baseline
  Time to exhaustion: 894 s
[7]; placebo group remains at stage 5
  Stage achieved in the treadmill test: stage 6
[7]; vs baseline, compared to 2.1% after placebo intake
  Increase of time to exhaustion: 7.3%
[8]; 0 months
  Total creatine, Vastus medialis muscle: 28.2 ± 3.0 mM
[8]; 3 months
  Cohen's effect size (d), brain creatine level, left parietal white matter: 0.92
  Cohen's effect size (d), brain creatine level, parietal white matter: 1.99
  Cohen's effect size (d), brain creatine level, right frontal white matter: 1.25
  Cohen's effect size (d), brain creatine level, right paracentral grey matter: 0.88
  Cohen's effect size (d), brain creatine level, right parietal messial grey matter: 1.17
  Cohen's effect size (d), brain creatine level, thalamus: 0.82
  Total creatine, Vastus medialis muscle: 30.0 ± 4.2 mM
[8]; 6 months
  Cohen's effect size (d), brain creatine level, left parietal messial grey matter: 0.84
  Cohen's effect size (d), brain creatine level, left parietal white matter: 1.17
  Cohen's effect size (d), brain creatine level, parietal white matter: 1.74
  Cohen's effect size (d), brain creatine level, right frontal white matter: 1.32
  Cohen's effect size (d), brain creatine level, right parietal messial grey matter: 1.06
  Total creatine, Vastus medialis muscle: 30.6 ± 3.4 mM
[9]
  Total creatine, Left frontal grey matter: 6.6 ± 0.6 mM
  Total creatine, Left frontal white matter: 6.7 ± 0.7 mM
  Total creatine, Left mesial grey matter: 8.1 ± 1.3 mM
  Total creatine, Left paracentral grey matter: 6.8 ± 0.8 mM
  Total creatine, Left parietal white matter: 7.5 ± 1.6 mM
  Total creatine, Left precentral white matter: 6.4 ± 1.0 mM
  Total creatine, Right frontal grey matter: 6.6 ± 1.1 mM
  Total creatine, Right frontal white matter: 6.7 ± 1.0 mM
  Total creatine, Right mesial grey matter: 8.4 ± 1.4 mM
  Total creatine, Right paracentral grey matter: 7.2 ± 0.8 mM
  Total creatine, Right parietal white matter: 7.6 ± 1.9 mM
  Total creatine, Right precentral white matter: 6.8 ± 0.9 mM
  Total creatine, Thalamus: 5.1 ± 1.0 mM
  Total creatine, Vastus medialis muscle: 29.0 ± 5.6 mM
[9]; 8 weeks
  Cohen's effect size (d) for creatine increase, parietal mesial grey matter: 0.65
  Total creatine, Left frontal grey matter: 6.5 ± 0.5 mM
  Total creatine, Left frontal white matter: 6.8 ± 0.9 mM
  Total creatine, Left mesial grey matter: 8.6 ± 1.1 mM
  Total creatine, Left paracentral grey matter: 6.9 ± 0.9 mM
  Total creatine, Left parietal white matter: 7.8 ± 1.3 mM
  Total creatine, Left precentral white matter: 6.7 ± 0.8 mM
  Total creatine, Right frontal grey matter: 6.7 ± 1.0 mM
  Total creatine, Right frontal white matter: 7.0 ± 1.1 mM
  Total creatine, Right mesial grey matter: 9.2 ± 1.0 mM
  Total creatine, Right paracentral grey matter: 7.6 ± 1.6 mM
  Total creatine, Right parietal white matter: 7.7 ± 1.9 mM
  Total creatine, Right precentral white matter: 7.4 ± 1.1 mM
  Total creatine, Thalamus: 5.3 ± 0.9 mM
  Total creatine, Vastus medialis muscle: 30.4 ± 5.2 mM
[10]; 8 weeks
  General fatigue (MFI-20 score): 12.0
  Mental fatigue (MFI-20 score): 12.2
  Physical fatigue (MFI-20 score): 11.4
  Reduced activity (MFI-20 score): 12.0
  Reduced motivation (MFI-20 score): 10.3
[10]; 8 weeks vs baseline
  Cohen's effect (d), General Fatigue: 0.44
  Cohen's effect (d), Mental Fatigue (MF): 1.32
  Cohen's effect (d), Physical Fatigue (PF): 0.83
  Cohen's effect (d), Reduced Motivation (RM): 1.07
  Cohen's effect (d), Reduced activity (RA): 1.52
[10]; Baseline
  General fatigue (MFI-20 score): 12.6
  Mental fatigue (MFI-20 score): 13.4
  Physical fatigue (MFI-20 score): 12.2
  Reduced activity (MFI-20 score): 13.6
  Reduced motivation (MFI-20 score): 11.6
[11]
  Increase of creatine in the brain after creatine supplementation: ≤ 5%
[12]; 8 weeks
  Time to exhaustion: 844 s
[12]; Baseline
  Time to exhaustion: 824 s
[12]
  Change of time to exhaustion: 20 s
[13]
  Side effects / tolerability: well-tolerated

## O=C[C@H](O)[C@@H](O)[C@H](O)[C@H](O)CO [Glucose, glucose, reference compound]
[6]; 8 weeks
  Ageusia (VAS scale): 0.6
  Anosmia (VAS scale): 1.0
  Concentrating difficulties (VAS scale): 3.0
  Headache (VAS scale): 2.8
  Malaise (VAS scale): 3.0
[6]; Baseline
  Ageusia (VAS scale): 2.2
  Anosmia (VAS scale): 2.6
  Concentrating difficulties (VAS scale): 4.4
  Headache (VAS scale): 3.8
  Malaise (VAS scale): 4.6
[9]
  Total creatine, Left frontal grey matter: 6.8 ± 0.4 mM
  Total creatine, Left frontal white matter: 5.8 ± 0.4 mM
  Total creatine, Left mesial grey matter: 7.6 ± 0.7 mM
  Total creatine, Left paracentral grey matter: 7.0 ± 0.9 mM
  Total creatine, Left parietal white matter: 5.4 ± 0.6 mM
  Total creatine, Left precentral white matter: 5.6 ± 0.6 mM
  Total creatine, Right frontal grey matter: 7.0 ± 0.9 mM
  Total creatine, Right frontal white matter: 5.6 ± 0.8 mM
  Total creatine, Right mesial grey matter: 7.3 ± 0.6 mM
  Total creatine, Right paracentral grey matter: 6.4 ± 0.7 mM
  Total creatine, Right parietal white matter: 5.2 ± 0.7 mM
  Total creatine, Right precentral white matter: 5.4 ± 0.6 mM
  Total creatine, Thalamus: 5.5 ± 0.5 mM
  Total creatine, Vastus medialis muscle: 30.1 ± 12.7 mM
[9]; 8 weeks
  Total creatine, Left frontal grey matter: 6.3 ± 0.9 mM
  Total creatine, Left frontal white matter: 5.6 ± 1.0 mM
  Total creatine, Left mesial grey matter: 7.4 ± 0.6 mM
  Total creatine, Left paracentral grey matter: 6.9 ± 0.7 mM
  Total creatine, Left parietal white matter: 5.3 ± 0.5 mM
  Total creatine, Left precentral white matter: 5.6 ± 0.5 mM
  Total creatine, Right frontal grey matter: 7.0 ± 0.7 mM
  Total creatine, Right frontal white matter: 5.6 ± 0.8 mM
  Total creatine, Right mesial grey matter: 7.0 ± 1.0 mM
  Total creatine, Right paracentral grey matter: 6.2 ± 1.1 mM
  Total creatine, Right parietal white matter: 5.2 ± 0.7 mM
  Total creatine, Right precentral white matter: 5.3 ± 0.7 mM
  Total creatine, Thalamus: 5.5 ± 0.7 mM
  Total creatine, Vastus medialis muscle: 28.5 ± 9.2 mM
[10]; 8 weeks
  General fatigue (MFI-20 score): 11.6
  Mental fatigue (MFI-20 score): 11.0
  Physical fatigue (MFI-20 score): 12.6
  Reduced activity (MFI-20 score): 12.6
  Reduced motivation (MFI-20 score): 10.8
[10]; Baseline
  General fatigue (MFI-20 score): 12.0
  Mental fatigue (MFI-20 score): 11.4
  Physical fatigue (MFI-20 score): 12.8
  Reduced activity (MFI-20 score): 12.6
  Reduced motivation (MFI-20 score): 10.0
[12]; 8 weeks
  Time to exhaustion: 908 s
[12]; Baseline
  Time to exhaustion: 915 s
[12]
  Change of time to exhaustion: -7 s
